Test results as given in US7074825B2, “Composition and method for treating cancer” (priority 2002, dated 2006).
Values joined by “and” are separate entries in the source; they are usually repeats but may differ in a detail not shown here. Equal values may be shown once. Read-outs that look alike come from different tables or passages of the source.

Assays:
[1] = test system: Human PC-3 prostate adenocarcinoma cells; assay: PC-3 cell proliferation, CellTiter 96, 72 h exposure; type: cell-based; conditions: for Growth (average percent cell survival relative to the control group): PC3; for IC50: PC-3 cells, estimated, read-out: IC50 (suppression of proliferation); for Absorbance (net absorbance at 490 nm, net growth after 72 h): PC-3
Method: (§1) Seeding density was determined in the following pilot test. […] Incubation continued for an additional 48 h.
(§2) Incubation continued for additional 72 h.

[2] = test system: Human DU145 prostate carcinoma cells; assay: DU145 cell proliferation, CellTiter 96, 72 h exposure; type: cell-based; conditions: for Growth (average percent cell survival relative to the control group) / Absorbance (net absorbance at 490 nm, net growth after 72 h) / Growth (average percent cell survival relative to the control group after 72 h exposure period): DU145; for Growth (average percent cell survival relative to the control group after 72 h exposure period): lovastatin […], alone or all three together; for IC50: DU145 cells, estimated, read-out: IC50 (suppression of proliferation)
Method: as §1, §2

B16 melanoma cells = assay: B16 melanoma cell proliferation (cell count / CellTiter 96); conditions: for Observed Growth (empirical percentage survival): 40 hour exposure; for Growth (average percent cell survival relative to the control group after 72 h exposure period): geranyl anthranilate 30 μM, alone or all three together
Method: B16 melanoma cells were grown in monolayer culture (35×10 mm flasks) in 3 ml RPMI 1640 medium supplemented with 10% fetal bovine serum (FBS) and 80 mg gentamicin/L. The cultures, seeded with 3.3×10^4 cells/mL, were incubated for 24 h at 37° C. in a humidified atmosphere of 5% CO2. The medium was decanted and replaced with fresh medium containing the test agents. Tocotrienol, perillyl alcohol, and geranyl- or farnesyl-hydroquinone ethers were dissolved in ethanol; and lovastatin and genistein were dissolved in dimethyl sulfoxide, DMSO. The incubations were continued for an additional 48 h. All cultures contained 1 ml/L each of ethanol and DMSO. The medium and detached cells were decanted, the monolayer was washed twice with Hanks' Balanced Salt Solution (HBSS) and then incubated with a trypsin-EDTA solution at 37° C. for 2 min. Trypsin was inactivated by suspending the cells in medium containing 10% FBS. The trypsinized cells were pelleted at 250 xg and resuspended in HBSS. Viable cells, cells that excluded 0.4% trypan blue were counted with a hemocytometer; 24-h cell counts were deducted from final cell counts to provide an estimate of the net increase in cell number.
Measurement of B16 cell proliferation was confirmed by using CellTiter 96, Aqueous One Solution (Promega). Seeding density was determined in the following pilot test. B16 cells were maintained in monolayer culture (96-well tissue culture plate) in 0.1 mL of the medium described above. Cultures, seeded in escalating densities (0-8000 cells/well with a 500-cell interval), were incubated for 72 h at 37° C. in a humidified atmosphere of 5% CO2. At 24 h the medium was decanted from each well and replaced with 0.1 mL fresh medium. The 72-h cell populations were determined by adding 20 μl of CellTiter 96, Aqueous One Solution to each well; the plate was held in dark at 37° C. for 2 h and then read at 490 nm with a SPECTRAmax, 190 multi-plate reader with SOFTmax, PRO version 3.0 (Molecular Devices). Cell survival data were assessed as absorbance versus cell seeding density. The absorbance has a linear correlation with cell seeding density up to 2000 B16 cells/well. The midpoint of cell inoculation density, 1000 cells/well, was chosen for B16 cell proliferation assay. This procedure of determining seeding density also applies to all other cell lines in which the CellTiter 96, Aqueous One Solution was used for proliferation assay. In the proliferation assay, B16cells were incubated in 96-well plates for 24 h. The medium was decanted from each well and replaced with 0.1 mL fresh medium containing the test agents. Incubation continued for an additional 48 h. Cell populations of all wells were determined according to CellTiter 96 procedure as described above. Cell proliferation represents the net absorbance, the difference in absorbance between final and 24-h measurements.

B16 cancer cell cultures = assay: Cell phase distribution by flow cytometry (propidium iodine), B16; type: cell-based; conditions: genistein 5 μM, lovastatin 0.5 μM, geranyl anthranilate 30 μM, alone or all three together; for G2 phase cells: control 12.7%; for S phase cells: control 22.5%; for G1 phase cells: control 64.9%
Excerpt: (§3) Subsequent to the treatment of the cancer cells with these HGM-CoA reductase inhibitors, the cells were fixed in ethanol, treated with RNase and stained with propidium iodine. Fluorescent measurements were then made via a flow cytometer using a laser. A double discriminator was used as the primary gate to eliminate cell aggregates. The distribution profiles associated with the various phases (G1, S) were then obtained through the use of least squares fits of the frequency emission spectra.

[3] = test system: Human LNCaP prostate carcinoma cells; assay: LNCaP cell proliferation, CellTiter 96, 72 h exposure; type: cell-based
Method: as §1, §2

[4] = test system: DU145 cancer cell cultures; assay: Cell phase distribution by flow cytometry (propidium iodine), DU145; type: cell-based, Human; conditions: genistein 10 μM, lovastatin […], γ-tocotrienol 5 μM, alone or all three together; for G2 phase cells: control 11.6%; for G1 phase cells: control 65.4%; for S phase cells: control […]
Excerpt: as §3

[5] = genistein 10 μM, γ-tocotrienol 5 μM
[6] = genistein 5 μM, lovastatin 0.5 μM
[7] = perillyl alcohol 800 μM, negative = cell killing

Molecule: CC(C)=CCCC(C)=CCCC(C)=CCO [Farnesol, farnesol]
- Growth (average percent cell survival relative to the control group) ([1]; farnesol 50 μM): 53 ± 5%
- Growth (average percent cell survival relative to the control group) ([1]; farnesol 100 μM): 93 ± 7%
- Growth (average percent cell survival relative to the control group) ([2]; farnesol 50 μM): 38%
- Growth (average percent cell survival relative to the control group) ([2]; farnesol 100 μM): 79 ± 11%
- Observed Growth (empirical percentage survival) (B16 melanoma cells; farnesol 12.5 μM): 84%
- Observed Growth (empirical percentage survival) (B16 melanoma cells; farnesol 25 μM): 54%

Molecule: C/C=C(\C)C(=O)OCC=C(C)CCC=C(C)CCC=C(C)C [Farnesyl Tiglate, farnesyl tiglate]
- Growth (average percent cell survival relative to the control group) (B16 melanoma cells; farnesyl tiglate 25 μM): 70%
- Growth (average percent cell survival relative to the control group) (B16 melanoma cells; farnesyl tiglate 50 μM): 49%

Molecule: O=c1c(-c2ccc(O)cc2)coc2cc(O)cc(O)c12 [Genistein, genistein]
- IC50 ([1]; Homo sapiens): 70 ± 17 µM
- Growth (average percent cell survival relative to the control group) ([1]; genistein 10 μM): 121 ± 3%
- Growth (average percent cell survival relative to the control group) ([1]; genistein 20 μM): 87% and 95 ± 4%
- Growth (average percent cell survival relative to the control group) ([1]; genistein 40 μM): 78% and 74 ± 11% and 84 ± 2%
- Absorbance (net absorbance at 490 nm, net growth after 72 h) ([1]; genistein 10 μM): 0.43
- Absorbance (net absorbance at 490 nm, net growth after 72 h) ([1]; genistein 20 μM): 0.39
- Absorbance (net absorbance at 490 nm, net growth after 72 h) ([1]; genistein 40 μM): 0.32
- G2 phase cells (B16 cancer cell cultures): 10.8%
- S phase cells (B16 cancer cell cultures): 21.7%
- G1 phase cells (B16 cancer cell cultures): 67.6%
- Absorbance (net absorbance at 490 nm, net growth after 72 h) ([2]; genistein 10 μM): 0.53
- Growth (average percent cell survival relative to the control group) ([2]; genistein 10 μM): 100% and 93%
- Growth (average percent cell survival relative to the control group after 72 h exposure period) [2, 5]: 100%
- Absorbance (net absorbance at 490 nm, net growth after 72 h) ([2]; genistein 20 μM): 0.34
- Growth (average percent cell survival relative to the control group) ([2]; genistein 20 μM): 97%
- Absorbance (net absorbance at 490 nm, net growth after 72 h) ([2]; genistein 40 μM): 0.20
- Growth (average percent cell survival relative to the control group) ([2]; genistein 40 μM): 38 ± 10%
- IC50 ([2]; Homo sapiens, DU-145): 30 µM
- Growth (average percent cell survival relative to the control group) ([3]; genistein 10 μM): 100%
- Growth (average percent cell survival relative to the control group) ([3]; genistein 20 μM): 70% and 99%
- Growth (average percent cell survival relative to the control group) (B16 melanoma cells; genistein 5 μM): 83%
- Observed Growth (empirical percentage survival) (B16 melanoma cells; genistein 5.0 μM): 63%
- Growth (average percent cell survival relative to the control group after 72 h exposure period) (B16 melanoma cells; [6]): 73%
- G2 phase cells [4]: 15.8%
- G1 phase cells [4]: 64.9%
- S phase cells [4]: 19.3%

Molecule: CC(C)=CCC/C(C)=C/COC(=O)c1ccccc1N [Geranyl Anthranilate, geranyl anthranilate]
- G2 phase cells (B16 cancer cell cultures): 9.8%
- S phase cells (B16 cancer cell cultures): 22.9%
- G1 phase cells (B16 cancer cell cultures): 67.3%
- Growth (average percent cell survival relative to the control group after 72 h exposure period) (B16 melanoma cells; [6]): 81%

Molecule: CC[C@H](C)C(=O)O[C@H]1C[C@@H](C)C=C2C=C[C@H](C)[C@H](CC[C@@H]3C[C@@H](O)CC(=O)O3)[C@H]21 [Lovastatin, [1S-[1α(R*),3α,7β,8β(2S*,4S*), 8a.β.]]-2-methylbutanoic acid 1,2,3,7,8,8a-hexahydro-3,7-dimethyl-8-[2-(tetrahydro-4-hydroxy-6-oxo-2H-pyran-2-yl)ethyl]-1-naphthalenyl ester, reference compound]
- IC50 ([1]; Homo sapiens): 2.2 ± 0.5 µM
- Growth (average percent cell survival relative to the control group) ([1]; lovastatin 0.75 μM): 87 ± 3%
- Absorbance (net absorbance at 490 nm, net growth after 72 h) ([1]; lovastatin 1 μM): 0.32
- Absorbance (net absorbance at 490 nm, net growth after 72 h) ([1]; lovastatin 2 μM): 0.10
- Absorbance (net absorbance at 490 nm, net growth after 72 h) ([1]; lovastatin 4 μM, negative = cell killing): −0.02
- G2 phase cells (B16 cancer cell cultures): 9.3%
- S phase cells (B16 cancer cell cultures): 22.2%
- G1 phase cells (B16 cancer cell cultures): 68.5%
- Growth (average percent cell survival relative to the control group after 72 h exposure period) [2, 5]: 100%
- Growth (average percent cell survival relative to the control group) ([2]; lovastatin 3 μM): 100%
- Growth (average percent cell survival relative to the control group) ([2]; lovastatin 3.0 μM): 100%
- Absorbance (net absorbance at 490 nm, net growth after 72 h) ([2]; lovastatin 4 μM): 0.37
- Absorbance (net absorbance at 490 nm, net growth after 72 h) ([2]; lovastatin 8 μM): 0.30
- Absorbance (net absorbance at 490 nm, net growth after 72 h) ([2]; lovastatin 16 μM): 0.18
- Absorbance (net absorbance at 490 nm, net growth after 72 h) ([2]; lovastatin 32 μM): 0.15
- IC50 ([2]; Homo sapiens, DU-145): 18 ± 2 µM
- Growth (average percent cell survival relative to the control group) ([3]; lovastatin 3 μM): 100%
- Growth (average percent cell survival relative to the control group) ([3]; lovastatin 3.0 μM): 100%
- Growth (average percent cell survival relative to the control group after 72 h exposure period) (B16 melanoma cells; [6]): 71%
- Growth (average percent cell survival relative to the control group) (B16 melanoma cells; lovastatin 0.5 μM): 100%
- Growth (average percent cell survival relative to the control group) (B16 melanoma cells; lovastatin 1.0 μM): 83%
- Growth (average percent cell survival relative to the control group) (B16 melanoma cells; lovastatin 3.0 μM): 42%
- G2 phase cells [4]: 15.7%
- G1 phase cells [4]: 62.0%
- S phase cells [4]: 22.3%

Molecule: C=C(C)[C@@H]1CC=C(CO)CC1 [Perillyl Alcohol, perillyl alcohol]
- IC50 ([1]; Homo sapiens): 480 µM
- Absorbance (net absorbance at 490 nm, net growth after 72 h) ([1]; perillyl alcohol 200 μM): 0.34
- Absorbance (net absorbance at 490 nm, net growth after 72 h) ([1]; perillyl alcohol 400 μM): 0.09
- Absorbance (net absorbance at 490 nm, net growth after 72 h) ([1]; perillyl alcohol 600 μM): 0.06
- Absorbance (net absorbance at 490 nm, net growth after 72 h) [1, 7]: −0.05
- Absorbance (net absorbance at 490 nm, net growth after 72 h) ([2]; perillyl alcohol 100 μM): 0.46
- Absorbance (net absorbance at 490 nm, net growth after 72 h) ([2]; perillyl alcohol 200 μM): 0.40
- Absorbance (net absorbance at 490 nm, net growth after 72 h) ([2]; perillyl alcohol 400 μM): 0.18
- Absorbance (net absorbance at 490 nm, net growth after 72 h) [2, 7]: −0.06
- Absorbance (net absorbance at 490 nm, net growth after 72 h) ([2]; perillyl alcohol 1600 μM, negative = cell killing): −0.05
- IC50 ([2]; Homo sapiens, DU-145): 420 µM

Molecule: CC(=O)O[C@H]1C(=O)[C@@]2(C)[C@H]([C@H](OC(=O)c3ccccc3)[C@]3(O)C[C@H](OC(=O)[C@H](O)[C@@H](NC(=O)c4ccccc4)c4ccccc4)C(C)=C1C3(C)C)[C@]1(OC(C)=O)CO[C@@H]1C[C@@H]2O [Taxol, taxol, reference compound]
- Growth (average percent cell survival relative to the control group) ([1]; taxol 2 nM): 97 ± 5%
- Growth (average percent cell survival relative to the control group) ([1]; taxol 5 nM): 71 ± 1%

Molecule: γ-tocotrienol
- Growth (average percent cell survival relative to the control group) ([1]; γ-tocotrienol 20 μM): 100%
- Absorbance (net absorbance at 490 nm, net growth after 72 h) ([1]; γ-tocotrienol 40 μM): 0.36
- Absorbance (net absorbance at 490 nm, net growth after 72 h) ([1]; γ-tocotrienol 80 μM): 0.02
- IC50 [1]: 39 µM
- Growth (average percent cell survival relative to the control group after 72 h exposure period) [2, 5]: 87%
- Absorbance (net absorbance at 490 nm, net growth after 72 h) ([2]; γ-tocotrienol 5 μM): 0.39
- Growth (average percent cell survival relative to the control group) ([2]; γ-tocotrienol 5 μM): 87%
- Absorbance (net absorbance at 490 nm, net growth after 72 h) ([2]; γ-tocotrienol 10 μM): 0.40
- Growth (average percent cell survival relative to the control group) ([2]; γ-tocotrienol 10 μM): 68%
- Absorbance (net absorbance at 490 nm, net growth after 72 h) ([2]; γ-tocotrienol 20 μM): 0.33
- Growth (average percent cell survival relative to the control group) ([2]; γ-tocotrienol 20 μM): 70%
- Absorbance (net absorbance at 490 nm, net growth after 72 h) ([2]; γ-tocotrienol 30 μM): 0.20
- Absorbance (net absorbance at 490 nm, net growth after 72 h) ([2]; γ-tocotrienol 40 μM, negative = cell killing): −0.05
- IC50 [2]: 20 ± 2 µM
- Growth (average percent cell survival relative to the control group) ([3]; γ-tocotrienol 5 μM): 100%
- Growth (average percent cell survival relative to the control group) ([3]; γ-tocotrienol 10 μM): 76%
- Growth (average percent cell survival relative to the control group) ([3]; γ-tocotrienol 20 μM): 70%
- Growth (average percent cell survival relative to the control group) (B16 melanoma cells; γ-tocotrienol 5 μM): 73%
- G2 phase cells [4]: 12.2%
- G1 phase cells [4]: 66.7%
- S phase cells [4]: 21.1%
